Consider eleven compounds from patent US20230286970A1, “NOVEL OXADIAZOLE-BASED SELECTIVE HDAC6 INHIBITORS” (ITALFARMACO S.P.A., priority 2020, published 2023).

One assay has as its target recombinant human HDAC1 (Homo sapiens (Human), UniProt Q13547). The assay is described as follows: Enzymatic screening, HDAC1 inhibition (fluorogenic FdL_G substrate). The class given is biochemical. A digest of the protocol: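 Recombinant human HDAC1 inhibition was measured fluorometrically using the FLUOR DE LYS-Green (FdL_G) substrate. Compounds at 8 doses (1% DMSO final) in Tris-HCl pH 8 buffer with NaCl, Tween-20 and glycerol were preincubated in triplicate with enzyme and 1 mg/mL BSA, then given substrate. Developer I plus 2 μM TSA was added, and fluorescence read after 25 minutes in the dark.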

Another assay addresses recombinant human HDAC6 (Homo sapiens (Human), UniProt Q9UBN7). The assay can be described thus: Enzymatic screening, HDAC6 inhibition (fluorogenic FdL_G substrate). The class given is biochemical. Summed up:
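Enzyme was preincubated with compound (8 doses, triplicate, 1% DMSO) in 25 mM Tris-HCl pH 8, 130 mM NaCl, 0.05% Tween-20, 10% glycerol, with BSA. A FLUOR DE LYS-Green substrate was then added, and fluorescence was read after developer plus 2 μM TSA.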

pIC50: −log10 of the molar value. Some results are limits rather than exact numbers.

As usually defined, the pIC50 is the IC50 on a negative log10 scale, so that one unit is a factor of ten.

Sequence of recombinant human HDAC6 (Q9UBN7 whole entry): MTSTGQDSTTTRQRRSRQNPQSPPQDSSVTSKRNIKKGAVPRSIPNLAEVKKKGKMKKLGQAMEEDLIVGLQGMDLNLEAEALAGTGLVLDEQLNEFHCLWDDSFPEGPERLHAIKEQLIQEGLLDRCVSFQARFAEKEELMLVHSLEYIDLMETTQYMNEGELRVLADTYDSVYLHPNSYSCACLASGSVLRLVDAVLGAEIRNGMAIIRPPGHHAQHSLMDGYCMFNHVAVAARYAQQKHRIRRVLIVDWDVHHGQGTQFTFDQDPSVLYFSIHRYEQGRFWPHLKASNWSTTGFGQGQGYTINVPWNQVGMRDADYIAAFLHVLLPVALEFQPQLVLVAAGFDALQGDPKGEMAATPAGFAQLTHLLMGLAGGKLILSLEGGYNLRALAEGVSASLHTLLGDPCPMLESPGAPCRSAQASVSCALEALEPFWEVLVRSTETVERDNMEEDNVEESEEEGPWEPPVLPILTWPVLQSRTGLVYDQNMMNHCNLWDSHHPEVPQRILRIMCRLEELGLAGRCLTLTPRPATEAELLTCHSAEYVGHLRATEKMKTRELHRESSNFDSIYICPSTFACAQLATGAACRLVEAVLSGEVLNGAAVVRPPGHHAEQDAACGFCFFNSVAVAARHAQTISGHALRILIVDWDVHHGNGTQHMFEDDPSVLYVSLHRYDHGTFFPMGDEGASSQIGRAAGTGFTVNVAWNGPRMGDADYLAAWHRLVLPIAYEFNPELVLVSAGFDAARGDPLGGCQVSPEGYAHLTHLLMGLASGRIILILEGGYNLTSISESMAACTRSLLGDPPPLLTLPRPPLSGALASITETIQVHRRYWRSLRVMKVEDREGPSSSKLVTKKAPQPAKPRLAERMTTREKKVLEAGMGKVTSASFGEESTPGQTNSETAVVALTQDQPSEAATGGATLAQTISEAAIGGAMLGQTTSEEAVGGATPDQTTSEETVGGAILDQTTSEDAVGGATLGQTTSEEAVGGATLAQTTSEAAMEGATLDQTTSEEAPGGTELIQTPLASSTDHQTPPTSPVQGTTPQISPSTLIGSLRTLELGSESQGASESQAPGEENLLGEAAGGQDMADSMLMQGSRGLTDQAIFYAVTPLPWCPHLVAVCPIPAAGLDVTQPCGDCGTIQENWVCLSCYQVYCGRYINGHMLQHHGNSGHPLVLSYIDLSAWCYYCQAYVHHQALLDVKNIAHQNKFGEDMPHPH
Sequence of recombinant human HDAC1 (Q13547 whole entry): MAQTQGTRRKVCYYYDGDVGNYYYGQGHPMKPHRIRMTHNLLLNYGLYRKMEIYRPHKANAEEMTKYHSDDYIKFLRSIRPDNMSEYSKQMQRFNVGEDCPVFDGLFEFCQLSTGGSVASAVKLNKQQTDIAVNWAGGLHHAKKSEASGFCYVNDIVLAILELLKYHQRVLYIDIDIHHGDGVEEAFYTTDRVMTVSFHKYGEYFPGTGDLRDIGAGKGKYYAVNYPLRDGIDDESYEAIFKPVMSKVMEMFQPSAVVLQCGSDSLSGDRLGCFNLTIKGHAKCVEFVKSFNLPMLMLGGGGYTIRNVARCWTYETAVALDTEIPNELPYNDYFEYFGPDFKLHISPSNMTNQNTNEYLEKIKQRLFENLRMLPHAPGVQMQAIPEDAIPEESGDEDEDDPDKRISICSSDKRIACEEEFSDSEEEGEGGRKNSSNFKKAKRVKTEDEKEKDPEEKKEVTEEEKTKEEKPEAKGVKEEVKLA

Take `O=C(Nc1cccc(-c2nc(Cc3ccc(-c4nnc(C(F)F)o4)cc3)no2)c1)N1CCOCC1` [compound 228, N-(3-(3-(4-(5-(difluoromethyl)-1,3,4-oxadiazol-2-yl)benzyl)-1,2,4-oxadiazol-5-yl)phenyl)morpholine-4-carboxamide]: the pIC50 on recombinant human HDAC1 is below 3.70; at recombinant human HDAC6, 6.75.
Take `CC(c1ccc(-c2nnc(C(F)F)o2)cc1)n1nnc(-c2ccc3c(c2)C(=O)N(C)CC3)n1` (stereo not shown) [compound 229, 7-(2-(1-(4-(5-(difluoromethyl)-1,3,4-oxadiazol-2-yl)phenyl)ethyl)-2H-tetrazol-5-yl)-2-methyl-3,4-dihydroisoquinolin-1 (2H)-one]: the pIC50 at recombinant human HDAC1 was below 3.70; at recombinant human HDAC6, 6.75.
For `O=C(c1ccc(-c2nnn(Cc3ccc(-c4nnc(C(F)F)o4)cc3)n2)cc1)N1CCOCC1` [compound 230, (4-(2-(4-(5-(difluoromethyl)-1,3,4-oxadiazol-2-yl)benzyl)-2H-tetrazol-5-yl)phenyl)(morpholino)methanone], the pIC50 at recombinant human HDAC1 was below 3.70; on recombinant human HDAC6, 6.73.
The like results for `CN1CCC(NC(=O)c2ccc(-c3nnn(Cc4ccc(-c5nnc(C(F)F)o5)cc4)n3)cc2)CC1` [compound 232, 4-(2-(4-(5-(difluoromethyl)-1,3,4-oxadiazol-2-yl)benzyl)-2H-tetrazol-5-yl)-N-(1-methylpiperidin-4-yl)benzamide] were, in that order, below 3.70 and 6.70.
Taken in the same sequence, the figures for `COc1ccccc1-c1cn(Cc2ccc(-c3nnc(C(F)F)o3)cc2)nn1` [compound 233, 2-(difluoromethyl)-5-(4-((4-(2-methoxyphenyl)-1H-1,2,3-triazol-1-yl)methyl)phenyl)-1,3,4-oxadiazole] were below 3.70 and 6.70.
The like results for `Nc1ccc(-c2cn(C(COc3ccccc3)c3ccc(-c4nnc(C(F)F)o4)cc3)nn2)cn1` (stereo not shown) [compound 236, 5-(1-(1-(4-(5-(difluoromethyl)-1,3,4-oxadiazol-2-yl)phenyl)-2-phenoxyethyl)-1H-1,2,3-triazol-4-yl)pyridin-2-amine] were, in that order, below 3.70 and 6.69.
In the case of `O=C(NCC1CC1)C1CCCN(C(=O)c2ccc(-c3cn(Cc4c(F)cc(-c5nnc(C(F)F)o5)cc4F)nn3)cc2)C1` (stereo not shown) [compound 239, N-(cyclopropylmethyl)-1-(4-(1-(4-(5-(difluoromethyl)-1,3,4-oxadiazol-2-yl)-2,6-difluorobenzyl)-1H-1,2,3-triazol-4-yl)benzoyl)piperidine-3-carboxamide], the values for the pIC50 on recombinant human HDAC1 and on recombinant human HDAC6 were below 3.70 and 6.67, respectively.
In the case of `CC(C)(C)OC(=O)N1CCn2ncc(-c3cccc(-c4nnn(Cc5ccc(-c6nnc(C(F)F)o6)cc5)n4)c3)c2C1` [compound 240, tert-butyl 3-(3-(2-(4-(5-(difluoromethyl)-1,3,4-oxadiazol-2-yl)benzyl)-2H-tetrazol-5-yl)phenyl)-6,7-dihydropyrazolo[1,5-a]pyrazine-5 (4H)-carboxylate], the pIC50 on recombinant human HDAC1 was below 3.70; on recombinant human HDAC6, 6.67.
Regarding `Cc1nc(F)ccc1-c1cn(Cc2ccc(-c3nnc(C(F)F)o3)cc2)nn1` [compound 241, 2-(difluoromethyl)-5-(4-((4-(6-fluoro-2-methylpyridin-3-yl)-1H-1,2,3-triazol-1-yl)methyl)phenyl)-1,3,4-oxadiazole], the results for the negative logarithm of the IC50 (pIC50) on recombinant human HDAC1 and at recombinant human HDAC6 were below 3.70 and 6.67, respectively.
The like results for `CCCCC(c1ccc(-c2nnc(C(F)F)o2)cc1)n1cc(-c2cccc(NC(=O)N3CCOCC3)c2)nn1` (stereo not shown) [compound 244, N-(3-(1-(1-(4-(5-(difluoromethyl)-1,3,4-oxadiazol-2-yl)phenyl)pentyl)-1H-1,2,3-triazol-4-yl)phenyl)morpholine-4-carboxamide] were, in that order, below 3.70 and 6.62.
For `CC1(C)NC(=O)c2cc(-c3cn(Cc4ccc(-c5nnc(C(F)F)o5)cc4)nn3)ccc21` [compound 245, 6-(1-(4-(5-(difluoromethyl)-1,3,4-oxadiazol-2-yl)benzyl)-1H-1,2,3-triazol-4-yl)-3,3-dimethylisoindolin-1-one], the pIC50 on recombinant human HDAC1 was below 3.70; at recombinant human HDAC6, 6.58.
